pIC50: −log10 of the molar value.
Key:
[1] = target: T1, human progesterone receptor A (Homo sapiens, UniProt P06401); assay: Progesterone receptor-antagonistic action in stably transfected SK-N-MC cells, PR-A, MMTV-LUC reporter; type: cell-based; details: read-out: IC50 PR-A
T1 construct: expressed in transfected cells; host or cells: SK-N-MC human neuroblastoma cells, stably transfected with pRChPR-A-neo and pMMTV-LUC
T1 sequence (P06401 1-769 isoform P06401-2): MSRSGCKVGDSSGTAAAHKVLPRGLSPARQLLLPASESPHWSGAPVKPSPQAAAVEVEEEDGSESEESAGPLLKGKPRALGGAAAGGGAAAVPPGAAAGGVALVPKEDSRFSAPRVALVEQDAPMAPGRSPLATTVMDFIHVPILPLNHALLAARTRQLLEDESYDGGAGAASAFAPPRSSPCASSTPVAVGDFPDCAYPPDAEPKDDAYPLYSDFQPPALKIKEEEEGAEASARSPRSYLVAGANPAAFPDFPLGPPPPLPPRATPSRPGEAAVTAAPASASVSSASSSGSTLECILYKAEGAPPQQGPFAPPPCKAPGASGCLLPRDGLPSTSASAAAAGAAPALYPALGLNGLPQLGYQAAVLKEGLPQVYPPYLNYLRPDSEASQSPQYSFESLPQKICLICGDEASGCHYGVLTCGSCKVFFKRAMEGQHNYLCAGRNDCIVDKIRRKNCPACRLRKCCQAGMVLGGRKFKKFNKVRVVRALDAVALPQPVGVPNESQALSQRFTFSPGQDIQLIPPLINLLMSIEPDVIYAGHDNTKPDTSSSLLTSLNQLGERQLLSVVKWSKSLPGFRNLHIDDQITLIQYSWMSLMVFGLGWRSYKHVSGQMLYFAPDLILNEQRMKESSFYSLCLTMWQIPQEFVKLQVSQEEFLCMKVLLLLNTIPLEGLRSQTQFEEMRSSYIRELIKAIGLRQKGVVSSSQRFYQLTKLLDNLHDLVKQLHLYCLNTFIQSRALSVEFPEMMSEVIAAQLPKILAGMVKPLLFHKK
Description: (§1) Determination of Progesterone Receptor-Antagonistic Action in Stable Transfectants of Human Neuroblastoma Cells (SK-N-MC Cells) with the Human Progesterone a or Progesterone B Receptor and an MN-LUC Reporter Construct
(§2) SK-N-MC cells (human neuroblastoma cells) which have been stably transfected with plasmids expressing the human progesterone receptor B (pRChPR-B-neo) or the human progesterone receptor A (pRChPR-A-neo) and a reporter construct (pMMTV-LUC) were incubated for 24 hours either in the absence (negative control) or in the presence of ascending amounts of the particular test compound (0.01 nmol/l, 0.1 nmol/l, 1 nmol/l, 10 nmol/l, 100 nmol/l and […]), in order to determine the agonistic efficacy. As a positive control of the reporter gene induction, the cells were treated with the synthetic gestagen promegestone (0.01 nmol/l, 0.1 nmol/l, 1 nmol/l, 10 nmol/l, 100 nmol/l and […]). To determine the antagonistic activity, the cells were treated with 0.1 nmol/l promegestone and additionally with ascending amounts of the particular test compound (0.01 nmol/l, 0.1 nmol/l, 1 nmol/l, 10 nmol/l, 100 nmol/l and […]). The activity of the reporter gene LUC (LUC=luciferase) was determined in the cell lysates and measured as RLU (relative light units). All measurements are reported as % efficacy and as EC50 and IC50 concentrations.

[2] = target: T2, human progesterone receptor B (Homo sapiens, UniProt P06401); assay: Progesterone receptor-antagonistic action in stably transfected SK-N-MC cells, PR-B, MMTV-LUC reporter; type: cell-based; details: read-out: IC50 PR-B
T2 construct: expressed in transfected cells; host or cells: SK-N-MC human neuroblastoma cells, stably transfected with pRChPR-B-neo and pMMTV-LUC
T2 sequence (P06401 1-933): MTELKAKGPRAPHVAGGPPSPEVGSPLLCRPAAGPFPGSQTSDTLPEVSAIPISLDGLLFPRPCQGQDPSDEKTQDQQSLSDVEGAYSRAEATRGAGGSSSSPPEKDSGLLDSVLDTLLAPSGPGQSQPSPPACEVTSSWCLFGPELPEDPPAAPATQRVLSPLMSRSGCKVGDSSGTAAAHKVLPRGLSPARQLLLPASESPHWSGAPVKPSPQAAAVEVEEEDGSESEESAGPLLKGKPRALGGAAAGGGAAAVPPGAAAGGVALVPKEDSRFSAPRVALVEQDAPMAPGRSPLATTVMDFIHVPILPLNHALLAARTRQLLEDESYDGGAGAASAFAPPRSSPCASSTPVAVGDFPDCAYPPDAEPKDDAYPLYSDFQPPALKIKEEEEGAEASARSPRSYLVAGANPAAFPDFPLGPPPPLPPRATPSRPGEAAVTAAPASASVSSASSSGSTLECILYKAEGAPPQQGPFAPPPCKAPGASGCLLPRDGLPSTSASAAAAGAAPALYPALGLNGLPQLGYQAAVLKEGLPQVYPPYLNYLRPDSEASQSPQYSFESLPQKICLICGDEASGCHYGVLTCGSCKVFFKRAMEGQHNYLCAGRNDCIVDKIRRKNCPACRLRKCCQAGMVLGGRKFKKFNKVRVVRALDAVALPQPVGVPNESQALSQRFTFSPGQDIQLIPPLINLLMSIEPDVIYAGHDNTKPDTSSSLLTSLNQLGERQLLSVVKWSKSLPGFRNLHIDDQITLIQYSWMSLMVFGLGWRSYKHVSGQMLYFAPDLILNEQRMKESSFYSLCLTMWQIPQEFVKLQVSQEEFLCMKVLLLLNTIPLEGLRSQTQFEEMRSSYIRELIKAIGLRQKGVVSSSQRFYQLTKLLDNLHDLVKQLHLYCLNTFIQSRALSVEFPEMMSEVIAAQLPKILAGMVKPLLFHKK
Description: as §1, §2

## CCNC(=O)OCC#Cc1ccc([C@H]2C[C@@]3(C)C(CC[C@@]3(O)C(F)(F)C(F)(F)F)C3CCC4=CC(=O)CCC4=C32)cc1 (stereo partly drawn) [Example 45, ethylcarbamic acid 3-[4-((8S,11R,13S,14S,17S)-17-hydroxy-13-methyl-3-oxo-17-pentafluoroethyl-2,3,6,7,8,11,12,13,14,15,16,17-dodecahydro-1H-cyclopenta[a]phenanthren-1′-yl)phenyl]prop-2-ynyl ester]
[1]
  pIC50: 11.00
[2]
  pIC50: 11.00

## CCO/N=C\C#Cc1ccc([C@H]2C[C@@]3(C)C(CC[C@@]3(O)C(F)(F)C(F)(F)F)C3CCC4=CC(=O)CCC4=C32)cc1 (stereo partly drawn) [Example 25B, (Z)-[4-((8S,11R,13S,14S,17S)-17-hydroxy-13-methyl-3-oxo-17-pentafluoroethyl-2,3,6,7,8,11,12,13,14,15,16,17-dodecahydro-1H-cyclopenta[a]phenanthren-1′-yl)phenyl]propynal O-ethyl oxime]
[1]
  pIC50: 10.05
[2]
  pIC50: 10.05

## COC(=O)c1ccc(C#Cc2ccc([C@H]3C[C@@]4(C)[C@@H](CC[C@@]4(O)C(F)(F)C(F)(F)F)[C@@H]4CCC5=CC(=O)CCC5=C43)cc2)cc1 [Example 15, 4-[4-((8S,11R,13S,14S,17S)-17-hydroxy-13-methyl-3-oxo-17-pentafluoroethyl-2,3,6,7,8,11,12,13,14,15,16,17-dodecahydro-1H-cyclopenta[a]phenanthren-11-yl)phenylethynyl]benzoic acid methyl ester]
[1]
  pIC50: 9.15
[2]
  pIC50: 9.00

## CC(C)CO/N=C/C#Cc1ccc([C@H]2C[C@@]3(C)C(CC[C@@]3(O)C(F)(F)C(F)(F)F)C3CCC4=CC(=O)CCC4=C32)cc1 (mixture of isomers) [Example 26, (E/Z)-[4-((8S,11R,13S,14S,17S)-17-hydroxy-13-methyl-3-oxo-17-pentafluoroethyl-2,3,6,7,8,11,12,13,14,15,16,17-dodecahydro-1H-cyclopenta[a]phenanthren-1′-yl)phenyl]propynal O-isobutyl oxime]
[1]
  pIC50: 10.10
[2]
  pIC50: 10.10

## CCOC(=O)c1ccc(NC(=O)NCC#Cc2ccc([C@H]3C[C@@]4(C)C(CC[C@@]4(O)C(F)(F)C(F)(F)F)C4CCC5=CC(=O)CCC5=C43)cc2)cc1 (stereo partly drawn) [Example 37, 4-(3-{3-[4-((8S,11R,13S,14S,17S)-17-hydroxy-13-methyl-3-oxo-17-pentafluoroethyl-2,3,6,7,8,11,12,13,14,15,16,17-dodecahydro-1H-cyclopenta[a]phenanthren-1′-yl)phenyl]prop-2-ynyl}ureido)benzoic acid ethyl ester]
[1]
  pIC50: 10.00
[2]
  pIC50: 9.40

## CC(C)(O)C#Cc1ccc([C@H]2C[C@@]3(C)[C@@H](CC[C@@]3(O)C(F)(F)C(F)(F)F)[C@@H]3CCC4=CC(=O)CCC4=C32)cc1 [Example 21, (8S,11R,13S,14S,17S)-17-hydroxy-11-[4-(3-hydroxy-3-methylbut-1-ynyl)phenyl]-13-methyl-17-pentafluoroethyl-1,2,6,7,8,11,12,13,14,15,16,17-dodecahydrocyclopenta[a]phenanthren-3-one]
[1]
  pIC50: 9.44
[2]
  pIC50: 9.00

## C[C@]12C[C@H](c3ccc(C#CCOC(=O)Nc4ccc(F)cc4)cc3)C3=C4CCC(=O)C=C4CCC3C1CC[C@@]2(O)C(F)(F)C(F)(F)F (stereo partly drawn) [Example 48, 4-fluorophenylcarbamic acid 3-[4-((8S,11R,13S,14S,17S)-17-hydroxy-13-methyl-3-oxo-17-pentafluoroethyl-2,3,6,7,8,11,12,13,14,15,16,17-dodecahydro-1H-cyclopenta[a]phenanthren-1′-yl)phenyl]prop-2-ynyl ester]
[1]
  pIC50: 10.05
[2]
  pIC50: 10.10

## CCOC(=O)CCNC(=O)NCC#Cc1ccc([C@H]2C[C@@]3(C)C(CC[C@@]3(O)C(F)(F)C(F)(F)F)C3CCC4=CC(=O)CCC4=C32)cc1 (stereo partly drawn) [Example 30, 3-(3-{3-[4-((8S,11R,13S,14S,17S)-17-hydroxy-13-methyl-3-oxo-17-pentafluoroethyl-2,3,6,7,8,11,12,13,14,15,16,17-dodecahydro-1H-cyclopenta[a]phenanthren-1′-yl)phenyl]prop-2-ynyl}ureido)propionic acid ethyl ester]
[1]
  pIC50: 10.00
[2]
  pIC50: 9.40

## C[C@]12C[C@H](c3ccc(C#CCOC(=O)NCc4ccccc4)cc3)C3=C4CCC(=O)C=C4CCC3C1CC[C@@]2(O)C(F)(F)C(F)(F)F (stereo partly drawn) [Example 50, benzylcarbamic acid 3-[4-((8S,11R,13S,14S,17S)-17-hydroxy-13-methyl-3-oxo-17-pentafluoroethyl-2,3,6,7,8,11,12,13,14,15,16,17-dodecahydro-1H-cyclopenta[a]phenanthren-1′-yl)phenyl]prop-2-ynyl ester]
[1]
  pIC50: 11.00
[2]
  pIC50: 10.52

## CC(C)(C)c1ccc(NC(=O)OCC#Cc2ccc([C@H]3C[C@@]4(C)C(CC[C@@]4(O)C(F)(F)C(F)(F)F)C4CCC5=CC(=O)CCC5=C43)cc2)cc1 (stereo partly drawn) [Example 59, 4-tert-butylphenylcarbamic acid 3-[4-((8S,11R,13S,14S,17S)-17-hydroxy-13-methyl-3-oxo-17-pentafluoroethyl-2,3,6,7,8,11,12,13,14,15,16,17-dodecahydro-1H-cyclopenta[a]phenanthren-1′-yl)phenyl]prop-2-ynyl ester]
[1]
  pIC50: 9.15
[2]
  pIC50: 8.92

## CCOC(=O)c1ccc(NC(=O)OCC#Cc2ccc([C@H]3C[C@@]4(C)[C@@H](CC[C@@]4(O)C(F)(F)C(F)(F)F)[C@@H]4CCC5=CC(=O)CCC5=C43)cc2)cc1 [Example 53, 4-{3-[4-((8S,11R,13S,14S,17S)-17-hydroxy-13-methyl-3-oxo-17-pentafluoroethyl-2,3,6,7,8,11,12,13,14,15,16,17-dodecahydro-1H-cyclopenta[a]phenanthren-11-yl)phenyl]prop-2-ynyloxycarbonylamino}benzoic acid ethyl ester]
[1]
  pIC50: 9.80
[2]
  pIC50: 9.72

## COc1ccc(NC(=O)OCC#Cc2ccc([C@H]3C[C@@]4(C)C(CC[C@@]4(O)C(F)(F)C(F)(F)F)C4CCC5=CC(=O)CCC5=C43)cc2)cc1 (stereo partly drawn) [Example 52, 4-methoxyphenylcarbamic acid 3-[4-((8S,11R,13S,14S,17S)-17-hydroxy-13-methyl-3-oxo-17-pentafluoroethyl-2,3,6,7,8,11,12,13,14,15,16,17-dodecahydro-1H-cyclopenta[a]phenanthren-1′-yl)phenyl]prop-2-ynyl ester]
[1]
  pIC50: 11.00
[2]
  pIC50: 10.15
